One data set has as its system THP-1 cells. The experiment in a line: THP-1 host cell toxicity readout of the intramacrophage assay. The data set is classed as cell-based, human. The settings on record: for IC50: Homo sapiens; for THP-1 (pEC50): human THP-1 host cells. The procedure: (§1) This assay was conducted as previously described,[8] except for compound exposure time, which was 96 h instead of 72 h.

The subject of the next data set is L. donovani amastigotes. The experiment in a line: Intramacrophage L. donovani assay (Ld InMac). The class given is cell-based, Leishmania donovani. The settings on record: for EC50 / IC50: Leishmania donovani; for EC50: THP-1, 96 h, read-out: Ld InMac (pEC50) (converted); for EC50 / Ld InMac (pEC50): L. donovani amastigotes in THP-1 cells, 96 h compound exposure; for IC50: read-out: LdInMac pIC50 (converted); for loss in potency compared to 1: Ld InMac. The procedure:
as §1

Data set [1] is described as follows: Mouse liver microsomal intrinsic clearance. The class given is in vitro ADME. The settings on record: for Cli (mouse liver microsomal intrinsic clearance): mouse liver microsomes; for Cli (mouse, ml/min/g): supplement sheet. The procedure: (§2) These assays were conducted as previously described.[23]
A general note: Liver microsomes are a subcellular fraction often used to study metabolism.

Data set [2] is described as follows: Kinetic aqueous solubility. The data set is classed as physicochemical. The settings on record: kinetic; read-out: Aq Solubility (kinetic aqueous solubility). The procedure:
as §2

The next data set can be described thus: Chrom Log D pH7.4. The class given is physicochemical. The procedure: This assay was conducted as previously described.[11]
Where [3] appears, read: THP-1, supplement sheet, read-out: THP1 pIC50 (converted).

The term kinetic solubility denotes the concentration staying in solution when a stock, usually in DMSO, is diluted into the medium.

Converted amounts (≈) assume the structure as drawn. Read-outs that look alike come from different tables or passages of the source.

As to `Oc1c(-c2nnc(Cc3ccc(Cl)cc3)[nH]2)ncc2cccnc12` [Compound 1], the IC50 was 31.6 µM in the data set on THP-1 cells (setting [3]) and 0.316 µM in the data set with L. donovani amastigotes (supplement sheet). Moreover, the EC50 with L. donovani amastigotes was 0.316 µM. In the data set with L. donovani amastigotes (parasite vs THP-1 pEC50), the “selectivity over the human THP-1 cell line” value is on record as roughly 100 fold.

As to `Oc1c(-c2nnc(Cc3ccc(F)cc3)[nH]2)ncc2cccnc12` [Compound 2], the IC50 in the data set on THP-1 cells (setting [3]) was 39.8 µM; in the data set on L. donovani amastigotes (supplement sheet), 2.51 µM. In addition, the “loss in potency compared to 1” value in the data set with L. donovani amastigotes was roughly 10 fold.

With `Oc1c(-c2nc(C(O)c3ccccc3)n[nH]2)ncc2cccnc12` (centres unmarked) [Compound 3, 7-(3-(Hydroxy(phenyl)methyl)-1H-1,2,4-triazol-5-yl)-1,6-naphthyridin-8-ol], the values for the IC50 in the data set on THP-1 cells (setting [3]) and with L. donovani amastigotes (supplement sheet) were greater than 50.1 µM and 5.01 µM, respectively. Further, in the data set on L. donovani amastigotes, the “loss in potency compared to 1” value is recorded as roughly 10 fold.

Regarding `Cc1n[nH]c(-c2ncc3cccnc3c2O)n1` [Compound 4, 7-(3-Methyl-1H-1,2,4-triazol-5-yl)-1,6-naphthyridin-8-ol], the IC50 in the data set with THP-1 cells (setting [3]) and with L. donovani amastigotes (supplement sheet) was greater than 50.1 µM in each case.

Turning to `Oc1c(-c2nc(CN3CCOCC3)n[nH]2)ncc2cccnc12` [Compound 5, 7-(3-(Morpholinomethyl)-1H-1,2,4-triazol-5-yl)-1,6-naphthyridin-8-ol], the IC50 with THP-1 cells (setting [3]) was greater than 50.1 µM; in the data set on L. donovani amastigotes (supplement sheet), 31.6 µM. Also, the EC50 in the data set on L. donovani amastigotes is 31.6 µM.

Regarding `O=C1CCCN1Cc1n[nH]c(-c2ncc3cccnc3c2O)n1` [Compound 6, 1-((5-(8-Hydroxy-1,6-naphthyridin-7-yl)-1H-1,2,4-triazol-3-yl)methyl)pyrrolidin-2-one], the IC50 in the data set with THP-1 cells (setting [3]) was greater than 50.1 µM. The IC50 with L. donovani amastigotes (supplement sheet) is greater than 50.1 µM. Also, in data set [1], the “Cli (mouse liver microsomal intrinsic clearance)” value is less than 0.5 mL/min/g and the “Cli (mouse, ml/min/g)” value was less than 0.5 mL/min/g.

Take `O=C(NCc1ccc(Cl)cc1)c1ncc2cccnc2c1O` [Compound 7, N-(4-Chlorobenzyl)-8-hydroxy-1,6-naphthyridine-7-carboxamide]: the figures for the IC50 in the data set on THP-1 cells (setting [3]) and with L. donovani amastigotes (supplement sheet) were greater than 50.1 µM and 0.501 µM, respectively. In addition, in the data set on L. donovani amastigotes, the EC50 is 0.501 µM.

Turning to `Cc1n[nH]c(-c2nc(N3CCCC3=O)c3cccnc3c2O)n1` [Compound 12, 1-(8-Hydroxy-7-(3-methyl-1H-1,2,4-triazol-5-yl)-1,6-naphthyridin-5-yl)pyrrolidin-2-one], the “THP-1 (pEC50)” value with THP-1 cells is recorded as less than 4.3. Besides, the “THP1 pIC50” value in the data set on THP-1 cells (supplement sheet) is listed as less than 4.3. Moreover, in the data set with L. donovani amastigotes (supplement sheet), the “LdInMac pIC50” value is given as less than 4.3. In data set [1], the “Cli (mouse liver microsomal intrinsic clearance)” value was less than 0.5 mL/min/g and the “Cli (mouse, ml/min/g)” value is less than 0.5 mL/min/g. In addition, the kinetic solubility in data set [2] is on record as 109 µM (≈ 33.8 µg/mL).

As for `Cc1n[nH]c(-c2nc(-c3ccccc3)c3cccnc3c2O)n1` [Compound 14, 7-(3-Methyl-1H-1,2,4-triazol-5-yl)-5-phenyl-1,6-naphthyridin-8-ol], the “THP-1 (pEC50)” value in the data set with THP-1 cells was less than 4.3. For the same molecule, the “THP1 pIC50” value in the data set with THP-1 cells (supplement sheet) was less than 4.3. In the data set with L. donovani amastigotes, the “Ld InMac (pEC50)” value turned out to be 5.9. Also, in the data set on L. donovani amastigotes (supplement sheet), the “LdInMac pIC50” value was 5.9. Also, in data set [1], the “Cli (mouse liver microsomal intrinsic clearance)” value amounted to 9.4 mL/min/g and the “Cli (mouse, ml/min/g)” value was determined as 9.4 mL/min/g. In addition, the kinetic solubility in data set [2] is reported as 160 µM (≈ 48.5 µg/mL).

In the case of `Cc1n[nH]c(-c2cc3ncccc3c(-c3ccccc3)n2)n1` [Compound 17], the IC50 with THP-1 cells (setting [3]) and with L. donovani amastigotes (supplement sheet) was greater than 50.1 µM in each case.

Regarding `COc1ccccc1-c1nc(-c2nc(C)n[nH]2)c(OC)c2ncccc12` [Compound 18], the IC50 is greater than 50.1 µM in the data set with THP-1 cells (setting [3]) and 2.51 µM with L. donovani amastigotes (supplement sheet).

With `COc1ccccc1-c1nc(-c2nnc(C)o2)c(O)c2ncccc12` [Compound 19, 5-(2-Methoxyphenyl)-7-(5-methyl-1,3,4-oxadiazol-2-yl)-1,6-naphthyridin-8-ol], the IC50 in the data set on THP-1 cells (setting [3]) and in the data set with L. donovani amastigotes (supplement sheet) was greater than 50.1 µM each time. The “Cli (mouse liver microsomal intrinsic clearance)” value in data set [1] is listed as less than 0.5 mL/min/g. Besides, in data set [1], the “Cli (mouse, ml/min/g)” value is less than 0.5 mL/min/g.

As for `O=C(NCc1ccc(Cl)cc1)c1ccc2cccnc2c1O` [Compound 20], the IC50 with THP-1 cells (setting [3]) is 6.31 µM; in the data set with L. donovani amastigotes (supplement sheet), 15.8 µM. In the data set with THP-1 cells, the “THP-1 (pEC50)” value is listed as “toxic to the host THP-1 cells”.

For `O=C(NCc1ccc(Cl)cc1)c1ncc2ccccc2c1O` [Compound 21], the IC50 with THP-1 cells (setting [3]) and in the data set with L. donovani amastigotes (supplement sheet) was greater than 50.1 µM each time.

Consider `COc1ccc(CNC(=O)c2nn(C)c3cccnc3c2=O)cc1` [Compound 23, N-(4-Methoxybenzyl)-1-methyl-4-oxo-1,4-dihydropyrido[3,2-c]pyridazine-3-carboxamide], for which the IC50 in the data set with THP-1 cells (setting [3]) and in the data set on L. donovani amastigotes (supplement sheet) was greater than 50.1 µM each time.

For `Cc1nnc(C(=O)NC(C)(C)c2nc(C(=O)NCc3ccc(F)cc3)c(O)c(=O)n2C)o1` [Compound 24, Raltegravir, reference compound], the IC50 in the data set with THP-1 cells (THP-1, read-out: THP1 pIC50 (converted)) is greater than 50.1 µM; in the data set on L. donovani amastigotes it was greater than 50.1 µM.

With `COc1ccc(CNC(=O)c2ncc3cccnc3c2O)cc1` [Compound 27, 8-Hydroxy-N-(4-methoxybenzyl)-1,6-naphthyridine-7-carboxamide], in the data set with THP-1 cells (setting [3]), the IC50 was greater than 50.1 µM. In addition, in the data set on L. donovani amastigotes, the “Ld InMac (pEC50)” value is 6.3 and the EC50 is less than 1 µM. The IC50 in the data set with L. donovani amastigotes (supplement sheet) is 0.501 µM.

On to `O=C(NCc1ccc(F)cc1)c1nc(N2CCCCS2(=O)=O)c2cccnc2c1O` [Compound 30, N-(4-Fluorobenzyl)-5-(1,1-dioxido-1,2-thiazinan-2-yl)-8-hydroxy-1,6-naphthyridine-7-carboxamide, reference compound], for which, in the data set on THP-1 cells, the “THP-1 (pEC50)” value turned out to be 4.5. Moreover, in the data set on THP-1 cells (supplement sheet), the “THP1 pIC50” value was determined as 4.5. Besides, the “LdInMac pIC50” value in the data set on L. donovani amastigotes (supplement sheet) is listed as less than 4.3. In data set [1], the “Cli (mouse liver microsomal intrinsic clearance)” value came to 2.0 mL/min/g and the “Cli (mouse, ml/min/g)” value came to 2 mL/min/g. For the same molecule, in data set [2], the solubility (kinetic) is reported as greater than 250 µM.

With “(R)-N-(1-(4-Fluorophenyl)ethyl)-1-methyl-4-oxo-1,4-dihydro-1,5-naphthyridine-3-carboxamide [Compound 22]”, the “THP-1 (pEC50)” value in the data set on THP-1 cells is listed as less than 4.3. Also, the “THP1 pIC50” value in the data set on THP-1 cells (supplement sheet) is given as less than 4.3. The “LdInMac pIC50” value with L. donovani amastigotes (supplement sheet) is on record as less than 4.3. In data set [1], the “Cli (mouse liver microsomal intrinsic clearance)” value is given as 0.7 mL/min/g and the “Cli (mouse, ml/min/g)” value came to 0.7 mL/min/g. In addition, in data set [2], the kinetic solubility was greater than 250 µM.

“N-(4-Chlorobenzyl)-8-hydroxy-5-morpholino-1,6-naphthyridine-7-carboxamide [Compound 32]”: the “THP-1 (pEC50)” value in the data set on THP-1 cells is on record as less than 4.3. Further, the “THP1 pIC50” value in the data set with THP-1 cells (supplement sheet) was less than 4.3. Besides, the “Ld InMac (pEC50)” value in the data set with L. donovani amastigotes is reported as less than 4.3. In addition, the “LdInMac pIC50” value in the data set on L. donovani amastigotes (supplement sheet) is listed as less than 4.3. In addition, in data set [1], the “Cli (mouse liver microsomal intrinsic clearance)” value was found to be 24 mL/min/g and the “Cli (mouse, ml/min/g)” value was 24 mL/min/g. Besides, the solubility (kinetic) in data set [2] was determined as 219 µM.

As to “N-(Cyclopropylmethyl)-8-hydroxy-1,6-naphthyridine-7-carboxamide [Compound 29]”, the “THP-1 (pEC50)” value in the data set with THP-1 cells is listed as less than 4.3. In addition, the “THP1 pIC50” value with THP-1 cells (supplement sheet) was less than 4.3. For the same molecule, the “Ld InMac (pEC50)” value in the data set on L. donovani amastigotes was 5.9. The “LdInMac pIC50” value with L. donovani amastigotes (supplement sheet) is 5.9. The same molecule displayed a ChromLogDpH7.4 in “Chrom Log D pH7.4” (pH 7.4) of 3.3. The ChromLogD in “Chrom Log D pH7.4” (supplement sheet) was found to be 3.3. Besides, in data set [1], the “Cli (mouse liver microsomal intrinsic clearance)” value turned out to be 13 mL/min/g and the “Cli (mouse, ml/min/g)” value was 13 mL/min/g.

Values taken from PMC7748245, “Identification and Optimization of a Series of 8-Hydroxy Naphthyridines with Potent In Vitro Antileishmanial Activity: Initial SAR and Assessment of In Vivo Activity” (Journal of Medicinal Chemistry, 2020).
